This note sets out measurements from patent publication US8093275B2, “Oxazolone and pyrrolidinone-substituted pryidine amides as P2X3 and P2X2/3 antagonists” (Roche Palo Alto LLC, priority 2009, dated 2012).

In one experiment the target is T1, rat P2X3 receptor (Rattus norvegicus, UniProt P49654).
T1 construct: expressed in transfected cells; host or cells: CHO-K1
T1 sequence (P49654 1-397): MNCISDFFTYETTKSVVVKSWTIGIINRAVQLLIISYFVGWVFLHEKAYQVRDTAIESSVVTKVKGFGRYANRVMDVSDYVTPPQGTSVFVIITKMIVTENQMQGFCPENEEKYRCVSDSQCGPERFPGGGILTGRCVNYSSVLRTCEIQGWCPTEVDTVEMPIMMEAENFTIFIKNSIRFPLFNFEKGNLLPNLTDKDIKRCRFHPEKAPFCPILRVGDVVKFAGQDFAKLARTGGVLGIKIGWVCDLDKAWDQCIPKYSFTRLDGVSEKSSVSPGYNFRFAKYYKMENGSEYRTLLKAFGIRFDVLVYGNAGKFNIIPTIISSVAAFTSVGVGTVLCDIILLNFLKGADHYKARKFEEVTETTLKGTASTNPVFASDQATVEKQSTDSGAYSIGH
Nature of the experiment: P2X3 FLIPR (Fluorometric Imaging Plate Reader) assay. It is filed as cell-based. Conditions: CHO-K1 cells transfected with rat P2X3, agonist α,β-meATP 1 μM, FLIPR calcium fluorescence; for Ki: read-out: pKi P2X3 (converted). How it is done: (§1) CHO-K1 cells were transfected with cloned rat P2X3 or human P2X2/3 receptor subunits and passaged in flasks. 18-24 hours before the FLIPR experiment, cells were released from their flasks, centrifuged, and resuspended in nutrient medium at 2.5×10^5 cells/ml. The cells were aliquoted into black-walled 96-well plates at a density of 50,000 cells/well and incubated overnight in 5% CO2 at 37° C. On the day of the experiment, cells were washed in FLIPR buffer (calcium- and magnesium-free Hank's balanced salt solution, 10 mM HEPES, 2 mM CaCl2, 2.5 mM probenecid; FB). Each well received 100 μl FB and 100 μl of the fluorescent dye Fluo-3 AM [2 μM final conc.]. After a 1 hour dye loading incubation at 37° C., the cells were washed 4 times with FB, and a final 75 μl/well FB was left in each well.
(§2) Test compounds (dissolved in DMSO at 10 mM and serially diluted with FB) or vehicle were added to each well (25 μl of a 4× solution) and allowed to equilibrate for 20 minutes at room temperature. The plates were then placed in the FLIPR and a baseline fluorescence measurement (excitation at 488 nm and emission at 510-570 nm) was obtained for 10 seconds before a 100 μl/well agonist or vehicle addition. The agonist was a 2× solution of α,β-meATP producing a final concentration of 1 μM (P2X3) or 5 μM (P2X2/3). Fluorescence was measured for an additional 2 minutes at 1 second intervals after agonist addition. A final addition of ionomycin (5 μM, final concentration) was made to each well of the FLIPR test plate to establish cell viability and maximum fluorescence of dye-bound cytosolic calcium. Peak fluorescence in response to the addition of α,β-meATP (in the absence and presence of test compounds) was measured and inhibition curves generated using nonlinear regression. PPADS, a standard P2X antagonist, was used as a positive control.

A further experiment addresses T2, human P2X2/3 receptor (Homo sapiens, UniProt P56373+Q9UBL9).
T2 construct: expressed in transfected cells; host or cells: CHO-K1
T2 sequence (Q9UBL9 1-471): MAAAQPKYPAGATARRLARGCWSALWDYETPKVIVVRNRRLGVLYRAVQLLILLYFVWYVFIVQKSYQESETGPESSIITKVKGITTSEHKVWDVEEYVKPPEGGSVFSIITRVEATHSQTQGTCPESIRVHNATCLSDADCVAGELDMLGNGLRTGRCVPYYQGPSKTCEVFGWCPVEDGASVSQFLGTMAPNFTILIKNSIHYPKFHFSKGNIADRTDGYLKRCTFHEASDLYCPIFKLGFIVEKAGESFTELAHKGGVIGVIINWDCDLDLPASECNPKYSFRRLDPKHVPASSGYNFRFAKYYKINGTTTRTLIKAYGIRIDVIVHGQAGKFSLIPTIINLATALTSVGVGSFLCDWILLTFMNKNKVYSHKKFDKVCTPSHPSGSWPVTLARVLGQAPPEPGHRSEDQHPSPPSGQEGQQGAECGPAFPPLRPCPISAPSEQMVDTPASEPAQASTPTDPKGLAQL
T2 sequence (P56373 1-397): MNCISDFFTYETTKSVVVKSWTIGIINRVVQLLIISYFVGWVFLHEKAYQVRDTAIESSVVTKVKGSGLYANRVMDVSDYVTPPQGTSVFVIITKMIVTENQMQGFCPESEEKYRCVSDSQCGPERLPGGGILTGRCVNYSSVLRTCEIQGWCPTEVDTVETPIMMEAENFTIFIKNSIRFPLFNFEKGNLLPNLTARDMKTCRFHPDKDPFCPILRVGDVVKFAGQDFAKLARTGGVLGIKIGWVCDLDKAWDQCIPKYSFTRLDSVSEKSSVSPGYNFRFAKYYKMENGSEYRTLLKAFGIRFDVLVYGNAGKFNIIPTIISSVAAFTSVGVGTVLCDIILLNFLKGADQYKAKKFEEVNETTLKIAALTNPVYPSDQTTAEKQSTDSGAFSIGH
Nature of the experiment: P2X2/3 FLIPR (Fluorometric Imaging Plate Reader) assay. Format: cell-based. The note with it: CHO-K1 cells transfected with human P2X2/3; agonist α,β-meATP 5 μM; FLIPR calcium fluorescence; read-out: pKi P2X2/3 (converted). As to the method: as §1, §2

Molecules are shown by their SMILES.

With `COCC(C)NC(=O)c1cc(-c2ccc(C)cc2)cc(N2C(=O)CCC2C)c1` (centres unmarked) [Compound 36, 4′-Methyl-5-(2-methyl-5-oxo-pyrrolidin-1-yl)-biphenyl-3-carboxylic acid (2-methoxy-1-methyl-ethyl)-amide], the Ki at rat P2X3 receptor was 575 nM.

For the compound `CCC[C@@H]1COC(=O)N1c1cc(C(=O)NCc2cnc(C)cn2)cc(-c2ccc(C)cn2)c1` [Compound 24, N-(5-Methyl-pyrazin-2-ylmethyl)-3-(5-methyl-pyridin-2-yl)-5-((R)-2-oxo-4-propyl-oxazolidin-3-yl)-benzamide], at rat P2X3 receptor, the Ki was 166 nM.

On to `CCC[C@@H]1COC(=O)N1c1cc(C(=O)N[C@@H](C)CO)cc(-c2ccc(C)cn2)c1` [Compound 22, N-((S)-2-Hydroxy-1-methyl-ethyl)-3-(5-methyl-pyridin-2-yl)-5-((R)-2-oxo-4-propyl-oxazolidin-3-yl)-benzamide], for which the Ki on rat P2X3 receptor is 3800 nM.

On to `Cc1ccc(-c2cc(C(=O)N[C@@H](C)CO)cc(N3C(=O)OC[C@H]3C(C)C)c2)c(F)c1` [Compound 46, 2′-Fluoro-5-((R)-4-isopropyl-2-oxo-oxazolidin-3-yl)-4′-methyl-biphenyl-3-carboxylic acid ((S)-2-hydroxy-1-methyl-ethyl)-amide], for which the Ki is 93.3 nM at human P2X2/3 receptor and 2.45 nM at rat P2X3 receptor.

For `Cc1ccc(-c2cc(C(=O)NC3CC3)cc(N3C(=O)OC[C@@H]3C(C)C)c2)cc1` [Compound 42, 5-((S)-4-Isopropyl-2-oxo-oxazolidin-3-yl)-4′-methyl-biphenyl-3-carboxylic acid cyclopropylamide], the Ki at rat P2X3 receptor was 1480 nM.

`Cc1ccc(-c2cc(C(=O)NC(C)c3cnccn3)cc(N3C(=O)Cc4ccccc43)c2)cc1` (centres unmarked) [Compound 54, 4′-Methyl-5-(2-oxo-2,3-dihydro-indol-1-yl)-biphenyl-3-carboxylic acid (1-pyrazin-2-yl-ethyl)-amide]: the Ki is 112 nM on human P2X2/3 receptor and 20 nM on rat P2X3 receptor.

Consider `COCC(C)NC(=O)c1cc(-c2ccc(C)cc2)cc(N2CCNC2=O)c1` (centres unmarked) [Compound 35, 4′-Methyl-5-(2-oxo-imidazolidin-1-yl)-biphenyl-3-carboxylic acid (2-methoxy-1-methyl-ethyl)-amide], for which the “pKi P2X3” value on rat P2X3 receptor came out at 5.28.

Take `Cc1ccc(-c2cc(C(=O)NCc3cnc(C)cn3)cc(N3C(=O)Cc4ccccc43)c2)cc1` [Compound 53, 4′-Methyl-5-(2-oxo-2,3-dihydro-indol-1-yl)-biphenyl-3-carboxylic acid (5-methyl-pyrazin-2-ylmethyl)-amide]: the Ki is 123 nM on human P2X2/3 receptor and 7.24 nM at rat P2X3 receptor.

Consider `CCC1COC(=O)N1c1cc(C(=O)N[C@@H](C)CO)cc(-c2ccc(C)cn2)c1` (stereo partly drawn) [Compound 17, 3-(4-Ethyl-2-oxo-oxazolidin-3-yl)-N-((S)-2-hydroxy-1-methyl-ethyl)-5-(5-methyl-pyridin-2-yl)-benzamide], for which the results for the Ki on human P2X2/3 receptor and on rat P2X3 receptor were 4900 nM and 10.5 nM, respectively.

For the compound `Cc1ccc(-c2cc(C(=O)NC(C)c3cnccn3)cc(-n3c(=O)oc4ccccc43)c2)cc1` (centres unmarked) [Compound 50, 4′-Methyl-5-(2-oxo-benzooxazol-3-yl)-biphenyl-3-carboxylic acid (1-pyrazin-2-yl-ethyl)-amide], the Ki on human P2X2/3 receptor is 26.3 nM; on rat P2X3 receptor, 12.3 nM.

For `Cc1ccc(-c2cc(C(=O)NC3CC3)cc(N3C(=O)OC[C@H]3C(C)C)c2)nc1` [Compound 8, N-Cyclopropyl-3-((R)-4-isopropyl-2-oxo-oxazolidin-3-yl)-5-(5-methyl-pyridin-2-yl)-benzamide], the Ki on human P2X2/3 receptor is 132 nM; on rat P2X3 receptor, 2.69 nM.

On to `Cc1ccc(-c2cc(C(=O)N[C@@H](C)CO)cc(N3C(=O)OC[C@H]3C(C)C)c2)cc1` [Compound 38, 5-((R)-4-Isopropyl-2-oxo-oxazolidin-3-yl)-4′-methyl-biphenyl-3-carboxylic acid ((S)-2-hydroxy-1-methyl-ethyl)-amide], for which the Ki at human P2X2/3 receptor is 79.4 nM; at rat P2X3 receptor it was 2.19 nM.

Regarding `Cc1ccc(-c2cc(C(=O)N[C@@H](C)CO)cc(N3C(=O)CCC3C)c2)nc1` (stereo partly drawn) [Compound 26, N-((S)-2-Hydroxy-1-methyl-ethyl)-3-(2-methyl-5-oxo-pyrrolidin-1-yl)-5-(5-methyl-pyridin-2-yl)-benzamide], the Ki at rat P2X3 receptor was 912 nM.

Regarding `Cc1ccc(-c2cc(C(=O)NC(C)c3cnccn3)cc(N3C(=O)Cc4ccccc43)c2)nc1` (centres unmarked) [Compound 6, 3-(5-Methyl-pyridin-2-yl)-5-(2-oxo-2,3-dihydro-indol-1-yl)-N-(1-pyrazin-2-yl-ethyl)-benzamide], the Ki on human P2X2/3 receptor was 117 nM; at rat P2X3 receptor it was 7.41 nM.

For `CCC[C@@H]1COC(=O)N1c1cc(C(=O)NC(C)c2cnccn2)cc(-c2ccc(C)cn2)c1` (stereo partly drawn) [Compound 23, 3-(5-Methyl-pyridin-2-yl)-5-((R)-2-oxo-4-propyl-oxazolidin-3-yl)-N-(1-pyrazin-2-yl-ethyl)-benzamide], the Ki at rat P2X3 receptor is 85.1 nM.

As for `Cc1ccc(-c2cc(C(=O)N[C@@H](C)CO)cc(N3C(=O)OCC3(C)C)c2)nc1` [Compound 25, 3-(4,4-Dimethyl-2-oxo-oxazolidin-3-yl)-N-((S)-2-hydroxy-1-methyl-ethyl)-5-(5-methyl-pyridin-2-yl)-benzamide], at rat P2X3 receptor, the Ki was 28.2 nM.

`Cc1ccc(-c2cc(C(=O)N[C@@H](C)CO)cc(N3C(=O)OC[C@@H]3C(C)C)c2)cc1` [Compound 43, 5-((S)-4-Isopropyl-2-oxo-oxazolidin-3-yl)-4′-methyl-biphenyl-3-carboxylic acid ((S)-2-hydroxy-1-methyl-ethyl)-amide]: the Ki at rat P2X3 receptor was 2570 nM.

With `Cc1ccc(-c2cc(C(=O)NCc3cnc(C)cn3)cc(N3C(=O)OC[C@@H]3C(C)C)c2)cc1` [Compound 44, 5-((S)-4-Isopropyl-2-oxo-oxazolidin-3-yl)-4′-methyl-biphenyl-3-carboxylic acid (5-methyl-pyrazin-2-ylmethyl)-amide], the Ki at rat P2X3 receptor was 1020 nM.

For the compound `COCC(C)NC(=O)c1cc(-c2ccc(C)cc2)cc(N2CCNC2=O)c1` (centres unmarked) [Compound 52, 4′-Methyl-5-(2-oxo-imidazolidin-1-yl)-biphenyl-3-carboxylic acid (2-methoxy-1-methyl-ethyl)-amide], the Ki on rat P2X3 receptor is 5250 nM.

Turning to `Cc1ccc(-c2cc(C(=O)NCc3cnc(C)cn3)cc(N3C(=O)OCC3(C)C)c2)nc1` [Compound 21, 3-(4,4-Dimethyl-2-oxo-oxazolidin-3-yl)-N-(5-methyl-pyrazin-2-ylmethyl)-5-(5-methyl-pyridin-2-yl)-benzamide], on rat P2X3 receptor, the Ki is 3.55 nM.

For the compound `Cc1ccc(-c2cc(C(=O)NC(C)c3cnccn3)cc(N3C(=O)OC[C@H]3C)c2)nc1` (stereo partly drawn) [Compound 15, 3-((R)-4-Methyl-2-oxo-oxazolidin-3-yl)-5-(5-methyl-pyridin-2-yl)-N-(1-pyrazin-2-yl-ethyl)-benzamide], the Ki at rat P2X3 receptor was 1000 nM.
